# Laboratory results taken from patent US12103941B2, “Radiation-activatable platinum complex, its preparation and therapeutic use” (City University of Hong Kong, priority 2022, dated 2024).
# Columns and labels:
# [1] = system: different cancer cell lines (MCF-7, HeLa, 4T1, A549, A549cisR, A2780, A2780cisR); assay: Cytotoxicity, MTT assay, all tested cancer cell lines (FIG. 9); format: cell-based
# Procedure: (§1) The biological activity of complex 1 was evaluated. Human breast carcinoma MCF-7 cells, human cervix carcinoma HeLa cells, mammary breast carcinoma 4T1 cells, human lung carcinoma A549 cells, and cisplatin-resistant A549cisR cells were cultured in DMEM containing 10% FBS and 100 IU mL^−1 penicillin/streptomycin. Human ovarian carcinoma A2780 and A2780cisR cells were cultured in RPMI-1640 containing 10% FBS, 2 mM L-glutamine, and 100 IU mL^−1 penicillin/streptomycin. Human lung fibroblast MRC-5 cells were cultured in MEM containing 10% FBS, 1% NEAA, 1% L-Glutamine, 1% sodium pyruvate, and 100 IU mL^−1 penicillin/streptomycin. In every two passages of A2780cisR and A549cisR cells, 5 μM of cisplatin was added to maintain the platinum resistance. All the cells were cultured in humidified incubators at 37° C. with 5% CO2. Cell counting was performed with a hemocytometer. Cytotoxicity test was performed by exposing the cancer cells with complex 1. The viability of cancer cells exposed was evaluated by means of MTT assay. Specifically, the cells were first pre-seeded in 6-well plates until the confluency reached 80%. Then, the medium was removed and replaced with fresh medium containing different concentrations of complex 1 with 0.5% DMF (0, 2.5, 5, 12.5, 25, or 40 μM). After 30 min, the medium was aspirated, the well was washed with PBS for three times. […]
# [2] = system: Human lung fibroblast MRC-5 cells; assay: Cell viability of normal MRC-5 cells (FIG. 10); format: cell-based; settings: absence of ultrasound, 24 h
# Procedure: as §1
# [3] = Photo-activation of complex 1 by 808 nm laser, HPLC; format: physicochemical; settings: 10 μM in PBS (1% DMF), 5 mM ascorbate, laser 808 nm, 3.3 mW/cm^2, 15 min
# Procedure: The inventors have further investigated if complex 1 could be activated by other types of radiation such as EM radiation, in particular light such as infrared light. A PBS buffer solution (with 1% DMF) containing 10 μM complex 1 with 5 mM ascorbate in a quartz cuvette was irradiated with a laser (808 nm, 3.3 mW/cm^2) for 15 min under stirring. The sample was analysed by HPLC. […] In view of the similar profiles, the inventors believe that complex 1 would also release singlet oxygen upon photo-activation along with the aforementioned photo-induced reduction.
# [4] = Stability of complex 1 in the dark (HPLC); format: physicochemical; settings: 10 μM, PBS pH 7.4, RPMI-1640 culture medium and A2780 cell lysate, no radiation
# Procedure: The stability of complex 1, i.e., complex 1 in phosphate buffer saline (PBS) buffer, cell culture medium such as RPMI-1640, and cell lysate in the dark (i.e., in the absence of radiation) was determined. To determine the stability of complex 1 in PBS, complex 1 (10 μM) was dissolved in PBS buffer (pH 7.4, 1% DMF) and incubated at 310 K in the dark. At 24 h, the sample was analyzed by HPLC to determine the percentage of Pt(IV) remained. To determine the stability of complex 1 in complete RPMI-1640 culture medium (containing 10% FBS, 2 mM L-Glutamine, and 100 IU mL^−1 penicillin/streptomycin) or cell lysate (from A2780 cells by 1% triton X-100 lysis, protein concentration adjusted to 1.5 mg mL^−1), complex 1 was dissolved in these two solutions, respectively (with 1% DMF). At determined time intervals, 50 μL of samples were taken out and diluted with 200 μL MeOH with subsequent centrifugation at 14,000×g to remove proteins, and then the supernatant was analyzed by HPLC.
# [5] = Sono-activation (sono-induced reduction) of complex 1 in PBS, HPLC; format: physicochemical; settings: 4 W
# Procedure: The sono-activation property of complex 1 was investigated. A PBS solution (with 1% DMF) containing 10 μM complex 1 with or without 5 mM sodium ascorbate (i.e. the sample), was continuously treated with ultrasound (1.75 MHz, 4 W) for a total period of time of 60 min. The sample temperature was monitored with an FLIR thermographic camera and maintained at 37° C. throughout the experiment. […] (FIGS. 6C to 6E), indicating the reduction of Pt(IV) to Pt(II) along with the dissociation of the axial ligand 1 and hydroxide ligand upon sono-activation (i.e. complex 1 undergoes a sono-induced reduction).
# HeLa cells = assay: Cytotoxicity, MTT assay, HeLa cells; format: cell-based, human; settings: IC50 without vs with radiation
# Procedure: as §1
compound,measurement,setting,value
"CCCN1/C(=C/C=C2\CCCC(/C=C/C3=[N+](CCC)c4ccccc4C3(C)C)=C2Oc2ccc(CCC(=O)[O][Pt]3([NH2])([NH2])([OH])[O]C(=O)C4(CCC4)C(=O)[O]3)cc2)C(C)(C)c2ccccc21 [complex 1, cyaninplatin]",activity on tested cells upon ultrasound treatment,"[1]; ultrasound 3.5 W, 15 min",very active
same,toxicity to tested cells without ultrasound treatment,[1]; without the ultrasound treatment,generally non-toxic
same,toxicity to normal MRC-5 cells,[2],non-toxic
same,photo-activation / photo-induced reduction to Pt(II) complex,[3],can be photo-activated
same,time complex is stable in the dark (single HPLC peak),[4],≥ 6 h
same,complex 1 reduced (to Pt(II)) after sono-activation,"[5]; 10 μM in PBS (1% DMF), 5 mM ascorbate, ultrasound 1.75 MHz, about 60 min, 37° C.",about 95%
same,conditions required for sono-induced reduction,"[5]; 10 μM in PBS, with or without 5 mM ascorbate, with or without ultrasound 1.75 MHz",only occurs under the condition where both ascorbate and ultrasound are present
same,enhancement of cytotoxicity upon exposure to radiation,HeLa cells,about 6 times
